Laboratory results taken from patent US20210128609A1, “ONCOLOGY TREATMENTS USING ZINC AGENTS” (XYLONIX IP HOLDINGS PTE. LTD., priority 2018, published 2021).

Assays:
HeLa cells = conditions: 24h co-incubation with C004
Source text: See Goodall, M. L. et al., Developmental Cell, vol. 37, 337-349 (2016).

HCC-PDX xenograft = HCC-PDX xenograft on Humanized NSG mice with TIL analysis (Example 11); assay type: in vivo; conditions: tumor infiltrating leukocytes
Procedure: Pembrolizumab 25 mg/mL (Keytruda®, Merck® KGa) was purchased from Merck®. Isotonic zinc sulfate gamma-polyglutamate solution was prepared at pH 7.0 using Tris buffer (1 mM), at elemental zinc concentration of 1 mg/mL and gamma-polyglutamate concentration of 10 mg/mL.
All manipulations and procedures with mice were approved by Agency for Science, Technology and Research (A*STAR) Institutional Animal Care and Use Committee (IACUC). The diet provided was irradiated TEKLAD GLOBAL 18% Protein Rodent Diet (2918). Mice were housed in a sterile environment and only accessed under a BSL2 hood. Mice were fed, given water and monitored daily for health, and cages were changed weekly. NSG mice were purchased from The Jackson Laboratory and bred in a specific pathogen free facility at the Biological Resource Centre (BRC) in A*STAR, Singapore. One to three days old NSG pups were irradiated with a 55 s exposure equaling 1.1 Gy and transplanted with 1×10^5 CD34+ human fetal liver cells by intra-hepatic injections. The mice were bled at 8 weeks post-transplantation to determine the fraction of human immune cell reconstitution. Reconstitution was calculated by [% hCD45+/(% hCD45++% mCD45+)]. […]
Tumor volume was measured in two dimensions (length and width) using calipers and the tumor volume was calculated using the formula: Tumor size=(length […])×½. […]

N.S=C(S)N1CCCC1 [PDTC]
effect of inhibitor/agonist on C004-induced necrotic cytotoxicity (LDH release assay) (HeLa cells): did not cause a shift in the IC50 necrotic cytotoxicity

Pembrolizumab
TIL analysis, T cell involvement (HCC-PDX xenograft): solely dependent on CD8+ T cells
